Experiments:
[1] = molecular target: human HSD1 (Homo sapiens, UniProt P28845); assay: In vitro inhibition of purified human HSD1 (time-resolved fluorescence cortisol detection); type: biochemical; details: purified human HSD1, cortisone substrate, 30 min; read-out: hHSD1 IC50
Procedure: Purified human HSD1 was diluted in 50 mM Tris-HCl, 100 mM NaCl, 0.1 mg/ml BSA, 0.02% Lubrol, 20 mM MgCl2, 10 mM glucose 6-phosphate, 0.4 mM NADPH, 60 U/ml glucose 6-phosphate dehydrogenase to a concentration of 1.5 μg/ml (Enzyme Solution). […] Testing compounds (40 μM) in DMSO was diluted 3 fold in series in DMSO and further diluted 20 fold in Substrate Solution. Enzyme Solution (10 μl/well) was added into 384 well microtiter plates followed by diluted compound solutions (10 μl/well) and mixed well. Samples were then incubated at […] for 30 min. EDTA/biotin-cortisol solution (10 μl/well) in 28 mM EDTA, […], 50 mM Tris-HCl, 100 mM NaCl was then added followed by 5 ul/well of anti-cortisol antibody (3.2 μg/ml) in 50 mM Tris-HCl, 100 mM NaCl, 0.1 mg/ml BSA and the solution was incubated at 37 degrees for 30 min. […] Signals were quantitated by reading time-resolved fluorescence on a Victor 5 reader (Wallac).

[2] = molecular target: T1, human 11betaHSD1 (Homo sapiens, UniProt P28845); assay: Cell-based assay: HEK-293 cells stably transfected with human 11betaHSD1, cortisol by competitive ELISA; details: HEK-293 cells stably transfected with full-length human 11betaHSD1 cDNA, cortisone 100 nM, 1 hour
T1 construct: HEK-293 cells stably transfected with full-length human 11betaHSD1 cDNA; expressed in transfected cells; host or cells: HEK-293
Procedure: The following day, serially diluted 11bHSD1 inhibitor compounds dissolved in DMSO were added to plating media supplemented with BSA (2 mg/ml final). The final DMSO concentration was 1%. Media was aspirated from plates, and compounds in media were added to each well. The plates were incubated at 37° C. for 1 hour to allow for cellular uptake of compounds. 10 μL of substrate (cortisone) was then added to each well (100 nM final concentration) and incubated for 1 hour at 37° C. Plates were then transferred to ice and 80 μL of media transferred to a 96-well plate and stored at −30° C.
Plates were washed with PBS, 0.1% Tween-20, then washed with PBS alone. Plates were blocked with Blocking Buffer (Tropix Cat# AI075) for 2 hours at room temperature. The plates were then washed as previously described. Assay samples were thawed, diluted 1:4 in DMEM, 2 mg/mL BSA, 1% DMSO, and 24 μL was transferred to wells of a pre-coated 384-well plate, as well as varying amounts of cortisol standard. To each well, 12 μL of cortisol-conjugate and 12 μL of anti-cortisol EIA antibody were added and incubated 2 hrs at room temperature on a orbital plate shaker. The wells were then emptied by inversion, then washed three times with 100 μL of Wash Buffer (Tropix), and then 2 times with 100 μL of Assay Buffer (Tropix). 60 μL of CDP-STAR (Tropix) was added to each well and incubated 10 minutes at room temperature. Chemiluminescence was measured using a Victor V Reader (Perkin Elmer). Cortisol in each sample was interpolated from a standard curve generated with known amounts of cortisol. IC50 values were calculated using the curve fitting software XLFit3 (IDBS).

T1 sequence (P28845 whole entry): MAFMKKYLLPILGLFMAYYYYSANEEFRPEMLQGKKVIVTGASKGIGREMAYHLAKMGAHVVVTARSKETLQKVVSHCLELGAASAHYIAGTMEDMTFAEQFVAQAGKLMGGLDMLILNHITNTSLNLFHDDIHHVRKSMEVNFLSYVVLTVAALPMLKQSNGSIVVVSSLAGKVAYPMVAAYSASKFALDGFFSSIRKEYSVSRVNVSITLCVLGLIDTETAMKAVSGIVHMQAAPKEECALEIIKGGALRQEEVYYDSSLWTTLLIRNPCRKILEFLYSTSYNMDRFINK
human HSD1, sequence (P28845 whole entry): as above

Row | Compound | IC50 [1] [nM] | IC50 [2] [nM]
1 | Cn1c2c(c(=O)n1-c1ccccc1F)[C@H]1CC[C@]2(C)C1(C)C [Example 12, (4S,7R)-2-(2-Fluoro-phenyl)-1,7,8,8-tetramethyl-1,2,4,5,6,7-hexahydro-4,7-methano-indazol-3-one] | 291 | 19
2 | CC1(C)[C@@H]2CC[C@@]1(C)c1c2c(=O)n(-c2ccccc2)n1CCc1ccccc1 [Example 66, (4S,7R)-7,8,8-Trimethyl-1-phenethyl-2-phenyl-1,2,4,5,6,7-hexahydro-4,7-methano-indazol-3-one] |  | 19
3 | Cn1c2c(c(=O)n1Cc1ccc(F)cc1C(F)(F)F)[C@H]1CC[C@]2(C)C1(C)C [Example 37, (4S,7R)-2-(4-Fluoro-2-trifluoromethyl-benzyl)-1,7,8,8-tetramethyl-1,2,4,5,6,7-hexahydro-4,7-methano-indazol-3-one] |  | 27
4 | CC(C)CCn1c2c(c(=O)n1-c1ccc(F)cc1F)[C@H]1CC[C@]2(C)C1(C)C [Example 87, (4S,7R)-2-(2,4-Difluoro-phenyl)-7,8,8-trimethyl-1-(3-methyl-butyl)-1,2,4,5,6,7-hexahydro-4,7-methano-indazol-3-one] |  | 14
5 | Cn1c2c(c(=O)n1-c1ccc(O)cc1)[C@H]1CC[C@]2(C)C1(C)C [Example 76, (4S,7R)-2-(4-Hydroxy-phenyl)-1,7,8,8-tetramethyl-1,2,4,5,6,7-hexahydro-4,7-methano-indazol-3-one] |  | 20
6 | Cc1cccc(-n2c(=O)c3c(n2C)[C@]2(C)CC[C@H]3C2(C)C)c1C [Example 21, (4S,7R)-2-(2,3-Dimethyl-phenyl)-1,7,8,8-tetramethyl-1,2,4,5,6,7-hexahydro-4,7-methano-indazol-3-one] | 10 | 19
7 | CC(C)c1cccc(-n2c(=O)c3c(n2C)[C@]2(C)CC[C@H]3C2(C)C)c1 [Example 75, (4S,7R)-2-(3-Isopropyl-phenyl)-1,7,8,8-tetramethyl-1,2,4,5,6,7-hexahydro-4,7-methano-indazol-3-one] |  | 17
8 | Cn1c2c(c(=O)n1-c1cccc(-c3ccccc3)c1)[C@H]1CC[C@]2(C)C1(C)C [Example 43, (4S,7R)-2-Biphenyl-3-yl-1,7,8,8-tetramethyl-1,2,4,5,6,7-hexahydro-4,7-methano-indazol-3-one] | 59 | 25
9 | COc1cccc(Cn2c(=O)c3c(n2C)[C@]2(C)CC[C@H]3C2(C)C)c1 [Example 34, (4S,7R)-2-(3-Methoxy-benzyl)-1,7,8,8-tetramethyl-1,2,4,5,6,7-hexahydro-4,7-methano-indazol-3-one] | 472 | 134
10 | Cn1c2c(c(=O)n1-c1cc(C(F)(F)F)ccc1F)[C@H]1CC[C@]2(C)C1(C)C [Example 132, (4S,7R)-2-(2-Fluoro-5-trifluoromethyl-phenyl)-1,7,8,8-tetramethyl-1,2,4,5,6,7-hexahydro-4,7-methano-indazol-3-one] |  | 210
11 | Cn1c2c(c(=O)n1-c1ccc3ccccc3c1)[C@H]1CC[C@]2(C)C1(C)C [Example 144, (4S,7R)-1,7,8,8-Tetramethyl-2-naphthalen-2-yl-1,2,4,5,6,7-hexahydro-4,7-methano-indazol-3-one] |  | 24
12 | Cn1c2c(c(=O)n1Cc1cccc(F)c1)[C@H]1CC[C@]2(C)C1(C)C [Example 32, (4S,7R)-2-(3-Fluoro-benzyl)-1,7,8,8-tetramethyl-1,2,4,5,6,7-hexahydro-4,7-methano-indazol-3-one] | 23 | 60
13 | Cn1c2c(c(=O)n1Cc1ccc(C(N)=O)cc1)[C@H]1CC[C@]2(C)C1(C)C [Example 39, (4S,7R)-4-(1,7,8,8-Tetramethyl-3-oxo-1,3,4,5,6,7-hexahydro-4,7-methano-indazol-2-ylmethyl)-benzamide] | 101 | 243
14 | Cc1nc(Cn2c(=O)c3c(n2Cc2ccccc2)[C@@]2(C)CC[C@@H]3C2(C)C)cs1 [Example 150, (4R,7S)-1-Benzyl-7,8,8-trimethyl-2-(2-methyl-thiazol-4-ylmethyl)-1,2,4,5,6,7-hexahydro-4,7-methano-indazol-3-one] |  | 208
15 | Cn1c2c(c(=O)n1-c1cccc(Cl)c1Cl)[C@H]1CC[C@]2(C)C1(C)C [Example 126, (4S,7R)-2-(2,3-Dichloro-phenyl)-1,7,8,8-tetramethyl-1,2,4,5,6,7-hexahydro-4,7-methano-indazol-3-one] |  | 6
16 | Cn1c2c(c(=O)n1-c1cc(F)ccc1C(F)(F)F)[C@H]1CC[C@]2(C)C1(C)C [Example 133, (4S,7R)-2-(5-Fluoro-2-trifluoromethyl-phenyl)-1,7,8,8-tetramethyl-1,2,4,5,6,7-hexahydro-4,7-methano-indazol-3-one] |  | 21
17 | Cn1c2c(c(=O)n1-c1ccc(F)cc1)[C@H]1CC[C@]2(C)C1(C)C [Example 17, (4S,7R)-2-(4-Fluoro-phenyl)-1,7,8,8-tetramethyl-1,2,4,5,6,7-hexahydro-4,7-methano-indazol-3-one] | 1720 | 110

Results, then the molecule that gave them:

Row | IC50 [1] [nM] | IC50 [2] [nM] | Compound
18 |  | 11 | CC1(C)[C@@H]2CC[C@@]1(C)c1c2c(=O)n(-c2ccc(F)cc2F)n1Cc1ccc(C(F)(F)F)cc1 [Example 103, (4S,7R)-2-(2,4-Difluoro-phenyl)-7,8,8-trimethyl-1-(4-trifluoromethyl-benzyl)-1,2,4,5,6,7-hexahydro-4,7-methano-indazol-3-one]
19 |  | 9 | CC1(C)[C@@H]2CC[C@@]1(C)c1c2c(=O)n(-c2ccc(F)cc2Cl)n1Cc1ccc(F)cc1F [Example 123, (4S,7R)-2-(2-Chloro-4-fluoro-phenyl)-1-(2,4-difluoro-benzyl)-7,8,8-trimethyl-1,2,4,5,6,7-hexahydro-4,7-methano-indazol-3-one]
20 |  | 21 | CC1(C)[C@H]2CC[C@]1(C)c1c2c(=O)n(-c2ccc3ccccc3c2)n1Cc1ccccc1 [Example 145, (4R,7S)-1-Benzyl-7,8,8-trimethyl-2-naphthalen-2-yl-1,2,4,5,6,7-hexahydro-4,7-methano-indazol-3-one]
21 |  | 36 | COc1ncccc1Cn1c2c(c(=O)n1-c1ccc(F)cc1F)[C@@H]1CC[C@@]2(C)C1(C)C [Example 113, (4R,7S)-2-(2,4-Difluoro-phenyl)-1-(2-methoxy-pyridin-3-ylmethyl)-7,8,8-trimethyl-1,2,4,5,6,7-hexahydro-4,7-methano-indazol-3-one]
22 |  | 14 | COc1ccc(Cn2c3c(c(=O)n2-c2ccc(F)cc2F)[C@H]2CC[C@]3(C)C2(C)C)cc1 [Example 99, (4S,7R)-2-(2,4-Difluoro-phenyl)-1-(4-methoxy-benzyl)-7,8,8-trimethyl-1,2,4,5,6,7-hexahydro-4,7-methano-indazol-3-one]
23 |  | 21 | CC1(C)[C@H]2CC[C@]1(C)c1c2c(=O)n(-c2ccc(F)cc2Cl)n1Cc1ccc(F)cc1F [Example 122, (4R,7S)-2-(2-Chloro-4-fluoro-phenyl)-1-(2,4-difluoro-benzyl)-7,8,8-trimethyl-1,2,4,5,6,7-hexahydro-4,7-methano-indazol-3-one]
24 |  | 4 | Cc1cccc(-n2c(=O)c3c(n2Cc2ccccc2)[C@@]2(C)CC[C@@H]3C2(C)C)c1C [Example 137, (4R,7S)-1-Benzyl-2-(2,3-dimethyl-phenyl)-7,8,8-trimethyl-1,2,4,5,6,7-hexahydro-4,7-methano-indazol-3-one]
25 |  | 28 | CC(C)(C)c1ccc(Cn2c3c(c(=O)n2-c2ccc(F)cc2F)[C@H]2CC[C@]3(C)C2(C)C)cc1 [Example 98, (4S,7R)-1-(4-tert-Butyl-benzyl)-2-(2,4-difluoro-phenyl)-7,8,8-trimethyl-1,2,4,5,6,7-hexahydro-4,7-methano-indazol-3-one]
26 |  | 18 | CC1(C)[C@H]2CC[C@]1(C)c1c2c(=O)n(-c2ccc(F)cc2Cl)n1Cc1ccccc1 [Example 120, (4R,7S)-1-Benzyl-2-(2-chloro-4-fluoro-phenyl)-7,8,8-trimethyl-1,2,4,5,6,7-hexahydro-4,7-methano-indazol-3-one]

— patent US7622492B2, “Pyrazolones as inhibitors of 11β-hydroxysteroid dehydrogenase” (Hoffmann-La Roche Inc., priority 2005, dated 2009)
